Measurements published in ChEMBL document CHEMBL4011620, “Design and Discovery of N-(2-Methyl-5'-morpholino-6'-((tetrahydro-2H-pyran-4-yl)oxy)-[3,3'-bipyridin]-5-yl)-3-(trifluoromethyl)benzamide (RAF709): A Potent, Selective, and Efficacious RAF Inhibitor Targeting RAS Mutant Cancers” (J Med Chem, 2017).
pEC50, pIC50: −log10 of the molar value. Values after ≈ are worked out from the molar mass of the structure shown.

Tests used:
[1] = system: Calu-6; assay: Antiproliferative activity against human Calu6 cells harboring KRAS Q61K mutant assessed as reduction cell viability after 72 hrs by CellTiter-Glo assay; assay type: functional, cell-based; settings: Calu-6, 72 h
[2] = biological target: T1, RAF proto-oncogene serine/threonine-protein kinase (Homo sapiens, UniProt P04049); assay: Inhibition CRAF in human Calu6 cells assessed as decrease in MEK phosphorylation after 2 hrs by HTRF method; assay type: cell-based
[3] = Apparent permeability across apical to basolateral side in human Caco2 cells at pH 7.4 by LC/MS/MS analysis; settings: Caco-2, pH 7.4
[4] = Apparent permeability across basolateral to apical side in human Caco2 cells at pH 7.4 by LC/MS/MS analysis; settings: Caco-2, pH 7.4
[5] = Solubility of compound at pH 6.8 by shake-flask assay; settings: buffer
[6] = Intrinsic clearance in human liver microsomes; assay type: ADME, microsome; settings: read-out: CLH
[7] = Intrinsic clearance in rat liver microsomes; assay type: ADME, microsome; settings: read-out: CLH
[8] = biological target: Serine/threonine-protein kinase B-raf (Homo sapiens, UniProt P15056); assay: Binding affinity to human BRAF (429 to 741 residues) expressed in mammalian expression system at 1 uM by kinome scan assay relative to control
[9] = system: Serine/threonine-protein kinase B-raf (Homo sapiens), P15056 [V600E]; assay: Binding affinity to human BRAF V600E mutant (429 to 741 residues) expressed in mammalian expression system at 1 uM by kinome scan assay relative to control
[10] = AUC in Sprague-Dawley rat at 3 mg/kg, po; assay type: ADME, organism-based; settings: in vivo
[11] = Clearance in Sprague-Dawley rat 1 mg/kg, iv or 3 mg/kg, po; assay type: ADME, organism-based; settings: in vivo
[12] = Cmax in Sprague-Dawley rat at 3 mg/kg, po; assay type: ADME, organism-based; design: dose 3 mg/kg, route oral; settings: in vivo
[13] = Oral bioavailability in Sprague-Dawley rat at 3 mg/kg; assay type: ADME, organism-based; settings: in vivo
[14] = biological target: Platelet-derived growth factor receptor alpha (Homo sapiens) (UniProt P16234); assay: Binding affinity to human PDGFRalpha (330 to 640 residues) expressed in mammalian expression system at 1 uM by kinome scan assay relative to control
[15] = biological target: RAF proto-oncogene serine/threonine-protein kinase (Homo sapiens, UniProt P04049, Y340E/Y341E); assay: Inhibition of CRAF Y340E/Y341E mutant (unknown origin) using human MEK1 K97R mutant as substrate pretreated for 30 mins followed by substrate addition measured after 40 mins by alphascreen assay
[16] = biological target: T1, RAF proto-oncogene serine/threonine-protein kinase; assay: Activation of CRAF in human Calu6 cells assessed as increase in MEK phosphorylation at 3 uM after 2 hrs by FRET assay; assay type: cell-based

Sequence of RAF proto-oncogene serine/threonine-protein kinase (Homo sapiens, UniProt P04049, Y340E/Y341E) (P04049 whole entry Y340E/Y341E): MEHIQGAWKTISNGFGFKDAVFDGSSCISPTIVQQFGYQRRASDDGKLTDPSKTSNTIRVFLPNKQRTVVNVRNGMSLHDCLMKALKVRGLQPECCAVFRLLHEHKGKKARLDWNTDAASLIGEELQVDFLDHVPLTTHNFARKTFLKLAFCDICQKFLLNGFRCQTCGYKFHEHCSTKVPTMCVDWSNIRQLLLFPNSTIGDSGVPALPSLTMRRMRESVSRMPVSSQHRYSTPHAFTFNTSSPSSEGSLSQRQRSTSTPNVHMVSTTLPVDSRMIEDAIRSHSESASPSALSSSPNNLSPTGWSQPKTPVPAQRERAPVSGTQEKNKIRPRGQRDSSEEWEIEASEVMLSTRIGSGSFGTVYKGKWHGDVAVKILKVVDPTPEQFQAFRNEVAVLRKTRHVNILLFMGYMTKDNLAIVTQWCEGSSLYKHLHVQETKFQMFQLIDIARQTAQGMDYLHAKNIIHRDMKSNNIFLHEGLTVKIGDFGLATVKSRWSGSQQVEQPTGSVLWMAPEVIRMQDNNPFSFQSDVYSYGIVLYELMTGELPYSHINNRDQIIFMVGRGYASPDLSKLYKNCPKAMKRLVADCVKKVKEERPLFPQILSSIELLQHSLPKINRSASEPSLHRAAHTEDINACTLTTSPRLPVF
T1 sequence (P04049 whole entry): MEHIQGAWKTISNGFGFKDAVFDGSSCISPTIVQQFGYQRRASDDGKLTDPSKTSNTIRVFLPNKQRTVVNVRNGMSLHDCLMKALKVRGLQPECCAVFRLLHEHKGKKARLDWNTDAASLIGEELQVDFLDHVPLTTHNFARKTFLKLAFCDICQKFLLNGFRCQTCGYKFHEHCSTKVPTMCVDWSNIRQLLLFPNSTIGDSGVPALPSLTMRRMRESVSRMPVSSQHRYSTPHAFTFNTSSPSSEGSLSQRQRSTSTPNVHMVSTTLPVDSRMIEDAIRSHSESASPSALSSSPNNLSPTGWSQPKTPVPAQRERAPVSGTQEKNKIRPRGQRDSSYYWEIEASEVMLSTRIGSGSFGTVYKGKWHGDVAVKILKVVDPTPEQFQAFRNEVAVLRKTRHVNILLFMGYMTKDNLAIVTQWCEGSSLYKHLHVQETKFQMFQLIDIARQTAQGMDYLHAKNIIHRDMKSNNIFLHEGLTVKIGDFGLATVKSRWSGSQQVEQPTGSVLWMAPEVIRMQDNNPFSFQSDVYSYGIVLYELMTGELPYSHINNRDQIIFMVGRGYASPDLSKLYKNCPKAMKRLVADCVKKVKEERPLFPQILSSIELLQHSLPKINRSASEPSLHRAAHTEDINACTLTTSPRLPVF
Sequence of Serine/threonine-protein kinase B-raf (P15056 whole entry, the tested form may be a part): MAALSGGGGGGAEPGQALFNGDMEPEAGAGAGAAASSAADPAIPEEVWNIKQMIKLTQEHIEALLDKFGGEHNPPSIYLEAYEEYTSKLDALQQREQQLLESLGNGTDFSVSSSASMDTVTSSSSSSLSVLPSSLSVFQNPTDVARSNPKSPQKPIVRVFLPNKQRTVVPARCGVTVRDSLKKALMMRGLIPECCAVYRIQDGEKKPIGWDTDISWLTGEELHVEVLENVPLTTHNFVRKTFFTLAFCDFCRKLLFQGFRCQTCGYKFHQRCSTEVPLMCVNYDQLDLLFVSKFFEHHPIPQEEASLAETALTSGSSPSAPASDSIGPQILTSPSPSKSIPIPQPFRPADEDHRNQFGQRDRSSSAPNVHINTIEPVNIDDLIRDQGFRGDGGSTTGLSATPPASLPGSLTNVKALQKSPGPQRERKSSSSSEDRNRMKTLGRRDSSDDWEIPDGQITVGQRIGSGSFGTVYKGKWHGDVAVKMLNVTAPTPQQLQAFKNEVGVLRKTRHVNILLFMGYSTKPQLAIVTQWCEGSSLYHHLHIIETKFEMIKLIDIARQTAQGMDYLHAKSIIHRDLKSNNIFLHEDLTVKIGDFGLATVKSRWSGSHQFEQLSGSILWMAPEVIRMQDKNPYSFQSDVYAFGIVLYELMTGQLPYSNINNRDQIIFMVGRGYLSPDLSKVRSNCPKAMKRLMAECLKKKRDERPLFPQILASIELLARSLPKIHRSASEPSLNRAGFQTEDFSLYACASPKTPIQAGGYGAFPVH
Sequence of Serine/threonine-protein kinase B-raf (Homo sapiens), P15056 [V600E] (P15056 whole entry V600E, the tested form may be a part): as the sequence (P15056 whole entry, the tested form may be a part) above, with V600E counted along it
Sequence of Platelet-derived growth factor receptor alpha (Homo sapiens) (P16234 whole entry, the tested form may be a part): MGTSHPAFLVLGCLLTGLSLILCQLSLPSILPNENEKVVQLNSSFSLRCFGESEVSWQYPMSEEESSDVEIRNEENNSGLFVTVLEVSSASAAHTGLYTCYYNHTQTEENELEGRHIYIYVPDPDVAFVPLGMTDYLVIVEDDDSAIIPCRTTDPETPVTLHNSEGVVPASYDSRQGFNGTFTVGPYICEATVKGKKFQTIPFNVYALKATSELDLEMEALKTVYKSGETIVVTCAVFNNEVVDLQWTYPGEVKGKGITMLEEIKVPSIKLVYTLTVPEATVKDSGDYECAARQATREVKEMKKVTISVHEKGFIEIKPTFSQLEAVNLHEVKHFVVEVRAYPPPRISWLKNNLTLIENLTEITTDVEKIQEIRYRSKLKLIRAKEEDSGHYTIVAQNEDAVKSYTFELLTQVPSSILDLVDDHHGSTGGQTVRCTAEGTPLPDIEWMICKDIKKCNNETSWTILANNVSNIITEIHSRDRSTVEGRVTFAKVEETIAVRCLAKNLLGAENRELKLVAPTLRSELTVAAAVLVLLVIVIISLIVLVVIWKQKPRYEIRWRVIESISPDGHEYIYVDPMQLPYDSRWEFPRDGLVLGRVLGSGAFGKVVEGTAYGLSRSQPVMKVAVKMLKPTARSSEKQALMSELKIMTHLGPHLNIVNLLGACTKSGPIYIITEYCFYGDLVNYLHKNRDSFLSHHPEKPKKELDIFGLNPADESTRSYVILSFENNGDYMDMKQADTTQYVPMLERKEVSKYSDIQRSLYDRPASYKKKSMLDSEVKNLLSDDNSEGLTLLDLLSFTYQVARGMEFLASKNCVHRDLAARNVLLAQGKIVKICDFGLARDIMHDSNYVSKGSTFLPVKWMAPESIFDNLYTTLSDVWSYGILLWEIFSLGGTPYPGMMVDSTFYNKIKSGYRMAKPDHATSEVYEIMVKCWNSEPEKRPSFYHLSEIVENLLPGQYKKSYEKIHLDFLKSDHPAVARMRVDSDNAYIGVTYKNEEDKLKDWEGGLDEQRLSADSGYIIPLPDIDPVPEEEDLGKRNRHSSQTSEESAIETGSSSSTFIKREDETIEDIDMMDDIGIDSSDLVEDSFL

pEC50 [1]	pEC50 [2]	Papp A→B [3]	Papp B→A [4]	solubility thermodynamic [5]	microsomal CLint [6]	Structure (SMILES)	other results
5.39	6.70	21 ×10⁻⁶ cm/s	16 ×10⁻⁶ cm/s	190 µM (≈ 89.8 µg/mL)	110 µL/min/mg	Cc1ccc(NC(=O)c2cccc(C(F)(F)F)c2)cc1-c1cn(C)c(=O)c(N2CCOCC2)n1	
6.30		20 ×10⁻⁶ cm/s	22 ×10⁻⁶ cm/s	70 µM (≈ 33 µg/mL)	51 µL/min/mg	Cc1ccc(NC(=O)c2cccc(C(F)(F)F)c2)cc1-c1cc(N2CCOCC2)c(=O)n(C)c1	microsomal CLint [7]: 46 µL/min/mg; Activity [8]: > 99%; Activity [9]: > 99%; AUC [10]: 0.438 µM·h; clearance [11]: 53 mL/min/kg; Cmax [12]: 150 nM; bioavailability [13]: 22%; Activity [14]: 89%
5.60		5 ×10⁻⁶ cm/s	45 ×10⁻⁶ cm/s	24 µM (≈ 12.1 µg/mL)		Cc1ncc(NC(=O)c2cccc(C(F)(F)F)c2)cc1-c1cnc(OCCO)c(N2CCOCC2)c1	
5.54				< 2 µM		Cc1ncc(NC(=O)c2cccc(C(F)(F)F)c2)cc1-c1cnc(OC(C)C)c(N2CCOCC2)c1	
5.28		19 ×10⁻⁶ cm/s	38 ×10⁻⁶ cm/s	16 µM (≈ 7.08 µg/mL)	43 µL/min/mg	Cc1ccc(NC(=O)c2cccc(C(F)(F)F)c2)cc1-c1cc(N2CCOCC2)ncn1	microsomal CLint [7]: 79 µL/min/mg
5.51	6.15					Cc1ccc(C(=O)Nc2cccc(C(F)(F)F)c2)cc1-c1cc(N2CCOCC2)ncn1	pIC50 [15]: 8.70
						CCCS(=O)(=O)Nc1ccc(F)c(C(=O)c2c[nH]c3ncc(-c4ccc(Cl)cc4)cc23)c1F [VEMURAFENIB]	Activity [16]: Active
5.19	6.70	15 ×10⁻⁶ cm/s	15 ×10⁻⁶ cm/s	20 µM (≈ 8.61 µg/mL)	170 µL/min/mg	Cc1ccc(C(=O)Nc2cccc(C(C)(C)C)c2)cc1-c1cc(N2CCOCC2)ncn1	pIC50 [15]: 9.30; microsomal CLint [7]: 210 µL/min/mg
6.15	6.70		1.8 ×10⁻⁶ cm/s	< 2 µM		Cc1ccc(NC(=O)c2cccc(C(F)(F)F)c2)cc1-c1ccnc(N2CCOCC2)c1	
5.74	6.34	7 ×10⁻⁶ cm/s	43 ×10⁻⁶ cm/s	20 µM (≈ 9.45 µg/mL)	< 7.7 µL/min/mg	Cc1ncc(NC(=O)c2cccc(C(F)(F)F)c2)cc1-c1cc(N2CCOCC2)c(=O)n(C)c1	
5.80		16 ×10⁻⁶ cm/s	14 ×10⁻⁶ cm/s	< 2 µM		COc1ncc(-c2cc(NC(=O)c3cccc(C(F)(F)F)c3)cnc2C)cc1N1CCOCC1	
< 4.52	5.40	3 ×10⁻⁶ cm/s	39 ×10⁻⁶ cm/s	1040 µM (≈ 492 µg/mL)	< 7.7 µL/min/mg	Cc1ncc(NC(=O)c2ccnc(C(F)(F)F)c2)cc1-c1cc(N2CCOCC2)c(=O)n(C)c1	pIC50 [15]: 9.00
